Tests used:
[1] = tested on: Amaranthus retroflexus; assay: Soil treatment test (Test Example 2); type: in vivo; settings: four weeks after
Protocol: (§1) A test emulsion was prepared by the same method as that in Test example 1.
(§2) 70 cm^2 pots were filled with soil, and then seeds of Digitaria ciliaris and Amaranthus retroflexus were sown on the surface layer of each of the pots, respectively, followed by lightly covering with soil. On the next day, the above-mentioned test emulsion was diluted to obtain a predetermined active ingredient amount, and then was sprayed onto the soil surface at a spray volume of 2860 L per hectare using a small sprayer.
(§3) Four weeks after, the fresh grass mass at an aerial part on an untreated area or a treated area was measured per weed, and the herbicidal ratio was calculated by the following calculation formula.
(§4) Herbicidal ratio (%)=(the fresh grass mass at an aerial part on untreated area−the fresh grass mass at an aerial part on treated area)/(the fresh grass mass at an aerial part on untreated area)×100
(§5) The compounds A-1 and A-4 were sprayed at a spray amount of 63 g or 31 g per hectare, respectively.
(§6) In addition, the following compounds (A) to (C) disclosed in Patent Document 1 were sprayed in a similar manner.

[2] = tested on: Digitaria ciliaris; assay: Soil treatment test (Test Example 2); type: in vivo; settings: four weeks after
Protocol: as §1, §2, §3, §4, §5, §6

[3] = tested on: Avena sativa; assay: Foliage treatment test (Test Example 1), foliage spray; type: in vivo; settings: 250 g per hectare, three weeks after, fresh grass mass of aerial part vs untreated
Protocol: (§7) POA allylphenyl ether (4.1 parts by mass), POE-POP glycol (1 part by mass), POE sorbitanlaurate (0.8 parts by mass), glycerin (2.6 parts by mass), dimethylformamide (65.9 parts by mass), N-methylpyrolidone (5.1 parts by mass), cyclohexanone (15.4 parts by mass), and aromatic hydrocarbon (5.1 parts by mass) were mixed and dissolved to prepare an emulsion. The compound according to the present invention (4 mg) was dissolved in the emulsion (100 μL) to prepare a test emulsion. The term “POA” means “polyoxyalkylene”, the term “POE” means “polyoxyethylene”, and the term “POP” means “polyoxypropylene”.
(§8) 150 cm^2 pots were filled with soil, and then seeds of Avena sativa, Matricaria chamomilla, Setaria faberi, Digitaria ciliaris, Abutilon theophrasti and Amaranthus retroflexus were sown on the surface layer of each of the pots, respectively, followed by lightly covering with soil. Then, the seeds were grown in a greenhouse. When each plant was grown to obtain a grass height of 2 cm to 4 cm, the above-mentioned test emulsion diluted to obtain a predetermined active ingredient amount was sprayed onto the leaves and stems at a spray volume of 250 L per hectare using a small sprayer.
(§9) Three weeks after, the fresh grass mass at an aerial part on an untreated area or a treated area was measured per weed, and the herbicidal ratio was calculated by the following calculation formula.
as §4

[4] = tested on: Amaranthus retroflexus; assay: as above; type: in vivo; settings: 250 g per hectare, three weeks after, fresh grass mass of aerial part vs untreated
Protocol: as §7, §8, §9, §4

[5] = tested on: Digitaria ciliaris; assay: as above; type: in vivo; settings: 250 g per hectare, three weeks after, fresh grass mass of aerial part vs untreated
Protocol: as §7, §8, §9, §4

[6] = tested on: Matricaria chamomilla; assay: as above; type: in vivo; settings: 250 g per hectare, three weeks after, fresh grass mass of aerial part vs untreated
Protocol: as §7, §8, §9, §4

[7] = tested on: Setaria faberi; assay: as above; type: in vivo; settings: 250 g per hectare, three weeks after, fresh grass mass of aerial part vs untreated
Protocol: as §7, §8, §9, §4

SMILES | Herbicidal ratio Amaranthus retroflexus ([1]; spray amount 31 g/ha) [%] | Herbicidal ratio Amaranthus retroflexus ([1]; spray amount 63 g/ha) [%] | Herbicidal ratio Digitaria ciliaris ([2]; spray amount 31 g/ha) [%] | Herbicidal ratio Digitaria ciliaris ([2]; spray amount 63 g/ha) [%] | Herbicidal ratio against Avena sativa [3] [%] | Herbicidal ratio against Amaranthus retroflexus [4] [%] | Herbicidal ratio against Digitaria ciliaris [5] [%] | Herbicidal ratio against Matricaria chamomilla [6] [%] | Herbicidal ratio against Setaria faberi [7] [%] | melting point [°C]
Cn1ncc(-c2ccc(C(F)(F)F)cc2S(C)(=O)=O)c(O)c1=O [(A)] | 0 | 0 | 0 | 0 |  |  |  |  |  | 
CC(=O)Oc1c(-c2ccc(C(F)(F)F)cc2S(C)(=O)=O)cnn(C)c1=O [(B)] | 0 | 0 | 0 | 30 |  |  |  |  |  | 
Cc1ccc(S(=O)(=O)Oc2c(-c3ccc(C(F)(F)F)cc3S(C)(=O)=O)cnn(C)c2=O)cc1 [(C)] | 0 | 0 | 40 | 70 |  |  |  |  |  | 
CC(OC(=O)C(C)C)Oc1c(-c2ccc(C(F)(F)F)cc2S(C)(=O)=O)cnn(C)c1=O (stereo not shown) [Compound A-1] | 100 | 100 | 100 | 100 | 100 | 100 | 100 | 100 | 100 | 
COC(=O)OC(C)Oc1c(-c2ccc(S(C)(=O)=O)cc2Cl)cnn(C)c1=O (stereo not shown) [Compound A-2] |  |  |  |  | 100 |  |  | 100 |  | 
COC(=O)OCOc1c(-c2ccc(C(F)(F)F)cc2S(C)(=O)=O)cnn(C)c1=O [Compound A-3] |  |  |  |  | 100 | 100 | 100 | 100 | 100 | 
COC(=O)OC(C)Oc1c(-c2ccc(C(F)(F)F)cc2S(C)(=O)=O)cnn(C)c1=O (stereo not shown) [Compound A-4, methyl (1-((2-methyl-5-(2-(methylsulfonyl)-4-(trifluoromethyl)phenyl)-3-oxo-2,3-dihydropyridazin-4-yl)oxy)ethyl) carbonate] |  | 100 |  | 100 | 100 | 100 | 100 | 100 |  | 173 to 176
CC(C)C(=O)OCOc1c(-c2ccc(C(F)(F)F)cc2S(C)(=O)=O)cnn(C)c1=O [Compound A-5] |  |  |  |  | 100 | 100 | 100 | 100 | 100 | 
COC(=O)OC(C)Oc1c(-c2ccc(S(C)(=O)=O)c(C3=NOCC3)c2Cl)cnn(C)c1=O (stereo not shown) [Compound A-7] |  |  |  |  | 100 | 100 | 100 | 100 | 100 | 
COCCOc1c(S(C)(=O)=O)ccc(-c2cnn(C)c(=O)c2OC(C)OC(=O)OC)c1Cl (stereo not shown) [Compound A-8] |  |  |  |  |  | 100 | 100 | 100 |  | 
COC(=O)OC(C)Oc1c(-c2ccc(C(F)(F)F)c(NC(=O)C3CC3)c2C)cnn(C)c1=O (stereo not shown) [Compound A-9] |  |  |  |  | 100 | 100 |  | 100 | 100 | 
